Patent publication US20240400546A1, “COMPOUNDS AND USES THEREOF” (JANSSEN PHARMACEUTICA NV, priority 2016, published 2024)
pIC50: −log10 of the molar value.

These molecules were tested against T1, SCD1 (Homo sapiens, UniProt O00767) (assay: Growth inhibition of humanized yeast expressing SCD1 as sole desaturase). Conditions: humanized yeast expressing SCD1.
T1 construct: host or cells: S. cerevisiae ole1Δ strain, plasmid pRS316 with TDH3 promoter and CYC1 terminator
T1 sequence (O00767 1-359): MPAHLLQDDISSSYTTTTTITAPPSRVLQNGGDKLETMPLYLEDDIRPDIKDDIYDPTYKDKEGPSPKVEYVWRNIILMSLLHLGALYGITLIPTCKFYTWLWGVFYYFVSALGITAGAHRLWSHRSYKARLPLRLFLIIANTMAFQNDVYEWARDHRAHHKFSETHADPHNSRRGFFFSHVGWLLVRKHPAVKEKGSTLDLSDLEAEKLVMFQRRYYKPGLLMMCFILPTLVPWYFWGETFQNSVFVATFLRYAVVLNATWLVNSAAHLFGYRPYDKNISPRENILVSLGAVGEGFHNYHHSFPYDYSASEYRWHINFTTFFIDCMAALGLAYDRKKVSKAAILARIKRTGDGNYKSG
Type: cell-based
Description: Strain ole1Δ (yeast ole1 deletion mutant) was constructed by deleting OLE1 with NAT-MX6 in BY4741, amplifying the deletion cassette from the genomic DNA of the resulting strain with primers flanking the ORF by 1000 bp upstream and downstream, transforming the resulting deletion cassette into W303 pdr1Δ pdr3Δ, and plating transformants on YPD media containing G418 (200 μg/mL) and nourseothricin (100 μg/mL) with 0.01% TWEEN®-20 and 0.5 mM oleic and palmitoleic acids.
The coding sequence of yeast OLE1 was also cloned into this plasmid). These clones were then transformed into the ole1Δ strain and plated on CSM-Ura media (CSM lacking uracil) with 2% glucose (w/v) and independent colonies were isolated and amplified.
All compound profiling experiments were performed using the same basic protocol. Different genetic backgrounds (e.g., gene deletions) or conditions (e.g., addition of oleic and palmitoleic acid) were replaced as indicated below.
Yeast were cultured using standard techniques in complete synthetic media (CSM) and yeast nitrogen base supplemented with 2% (w/v) carbon source (glucose, raffinose, or galactose) to regulate the expression of the toxic disease protein. An initial starter culture was inoculated in 3 mL CSM-Glucose media and incubated overnight in a 30° C. shaker incubator (225 rpm). Saturated morning cultures were then diluted 1:20 in fresh CSM-Raffinose media and grown for 6 h to an OD600 (optical density) of ˜0.4-0.8 at 30° C. with shaking.
Compound administration was performed in two separate steps. First, 15 μL of CSM-Galactose (induces expression of toxic protein) was dispensed into clear 384 well assay plates using a MULTIDROP™ Combi reagent dispenser. […] The cultures described above were then diluted to a 2× concentration (0.03 and 0.08 for alpha-synuclein and ApoE, final OD600 of 0.015 and 0.04) in CSM-Galactose. For wild-type and Ole1/SCD1/SCD5 plasmid-containing strains, the 2× cell density was 0.02. […] For 96-well assays (FIGS. 1A and 1B), compound dilutions in DMSO were generated in 96 well plates and 1 μL was manually pipetted into 96 well clear bottom assay plates.
For experiments using a plasmid-borne copy of Ole1, SCD1, or SCD5 (FIGS. 3B, 6, and 7), media lacking uracil (SX-Ura, where X is glucose, raffinose, or galactose), was used for all steps of the compound profiling protocol to ensure its maintenance throughout the assay.
After yeast delivery, assay plates were incubated under humidified conditions at 30° C. for 24 to 40 h. ApoE4 rescue experiments were stopped at 24 h, aSyn experiments at 40 h, Ole1 at 24 h, and SCD1/SCD5 at 40 h. The growth of yeast was monitored by reading the OD600 of each well using a microplate reader (Perkin Elmer EnVision™).

SMILES | pIC50
Cc1ccc(-c2nc(C3CCN(C(=O)C4CC(=O)N(c5ccc(C)c(C)c5)C4)CC3)no2)cc1 (stereo not shown) [Compound 50] | 4.39

Same assay, conditions: humanized yeast expressing human SCD1

SMILES | pIC50
CC(C)n1ncc2ccc(-c3noc(C4CCN(C(=O)c5ccsc5Cl)CC4)n3)cc21 [Compound 575] | < 4.35
Cc1nn(C)c2cc(-c3noc(C4CCN(C(=O)CC5COC5)CC4)n3)ccc12 [Compound 592] | < 4.35
CC(C)n1ncc2ccc(-c3noc(N4C[C@H]5CN(C(=O)CC(C)(C)C)C[C@H]5C4)n3)cc21 [Compound 497] | < 4.35
O=C(NCC(=O)N1CCC(c2nc(-c3ccc4cnn(C5COC5)c4c3)no2)CC1)c1ccccc1 [Compound 598] | < 4.35
CC(C)n1ncc2ccc(N3CC4(CCN(C(=O)OC5CC5)CC4)C3)cc21 [Compound 594] | < 4.35
Cc1nn(C)c2ccc(-c3noc(C4CCN(C(=O)c5ccc(C(C)C)cc5)CC4)n3)cc12 [Compound 297] | < 4.35
CC(C)n1ncc2ccc(-c3noc(C4CCN(C(=O)c5ccc(Cl)cc5)CC4)n3)cc21 [Compound 363] | < 4.35
CC(C)n1ncc2ccc(-c3noc([C@H]4CC[C@H](N)CC4)n3)cc21 [Compound 596] | < 4.35
CC(C)n1ncc2ccc(-c3nc(N4CCN(C(=O)c5ccccc5)CC4)no3)cc21 [Compound 582] | < 4.35
CC(C)n1ncc2ccc(N3CC4(CCNCC4)C3)cc21 [Compound 538] | < 4.35
O=C(CC1CC1)N1CCC(c2nc(-c3ccc4cnn(C5COC5)c4c3)no2)CC1 [Compound 558] | < 4.35
CC(C)n1ncc2ccc(-c3nc(N4CCN(C(=O)OC(C)(C)C)CC4)no3)cc21 [Compound 548] | < 4.35
Cc1nn(C)c2cc(-c3noc(C4CCN(C(=O)N[C@@H]5C[C@@H]5c5ccccc5)CC4)n3)ccc12 [Compound 329] | < 4.35
CC(C)n1ncc2ccc(-c3noc(C4CCN(C(=O)c5ccc(Cl)cn5)CC4)n3)cc21 [Compound 586] | < 4.35
Cc1nn(C)c2cc(-c3noc(C4CCN(c5nc(C(C)C)no5)CC4)n3)ccc12 [Compound 581] | < 4.35
COC(=O)N1CCC2(CC1)CN(c1nc(-c3ccc4cnn(C(C)C)c4c3)no1)C2 [Compound 570] | < 4.35
Cc1nn(C)c2cc(-c3noc(C4CCN(S(=O)(=O)C(C)C)CC4)n3)ccc12 [Compound 279] | < 4.35
Cc1nn(C)c2cc(-c3nsc(C4CCN(C(=O)OC(C)(C)C)CC4)n3)ccc12 [Compound 503] | < 4.35
CC(C)n1ncc2ccc(-c3noc(C4CCN(C(=O)[C@H]5CC(=O)N(c6cccc(C#N)c6)C5)CC4)n3)cc21 [Compound 529] | < 4.35
CC(C)n1ncc2ccc(-c3noc(C4CCN(C(=O)COc5ccccc5)CC4)n3)cc21 [Compound 358] | < 4.35
Cc1nn(C)c2cc(-c3noc(N4CCN(C(=O)c5ccccc5C(F)(F)F)CC4)n3)ccc12 [Compound 295] | < 4.35
COc1cc(-c2noc(C3CCN(C(=O)CNC(=O)c4ccccc4)CC3)n2)ccc1OC1CC1 [Compound 249] | < 4.35
Cc1nn(C)c2cc(-c3noc(C4CCN(C(=O)COc5ccccc5)CC4)n3)ccc12 [Compound 266] | < 4.35
Cc1nn(C)c2cc(-c3noc(N4CCN(C(=O)c5ccccc5)CC4)n3)ccc12 [Compound 261] | < 4.35
CC(=O)N1CCC2(CC1)CN(c1nc(-c3ccc4cnn(C(C)C)c4c3)no1)C2 [Compound 571] | < 4.35
Cc1nn(C)c2cc(-c3noc(C4CCN(C(=O)c5ccc(Cl)cc5)CC4)n3)ccc12 [Compound 291] | < 4.35
Cc1nn(C(C)C)c2cc(-c3noc(C4CCN(C(=O)OC(C)(C)C)CC4)n3)ccc12 [Compound 343] | < 4.35
Cc1nn(C)c2cc(-c3noc(N4CCN(C(=O)c5ccccc5Cl)CC4)n3)ccc12 [Compound 262] | < 4.35
CC(C)n1ncc2ccc(-c3noc(C4CCN(C(=O)c5ccc(F)cc5)CC4)n3)cc21 [Compound 544] | < 4.35
O=C(c1ccccc1)N1CCC(c2nc(N3CC4(CCCO4)C3)no2)CC1 [Compound 335] | < 4.35
